# Assay results as given in the METLIN SMRT retention time set (Domingo-Almenara et al. 2019).
# Assay: gradient 5% acetonitrile 3 min, to 50% in 2 min, to 85% in 15 min, held 3 min, 100 µL/min
# Conditions: column: Zorbax Extend-C18 2.1 x 50 mm; eluents: water / acetonitrile, 0.1% formic acid
# Summary of the method: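 A Zorbax Extend-C18 column (2.1 × 50 mm, 1.8 μm) run at 100 μL/min with water and acetonitrile, both containing 0.1% formic acid, separated mixtures of ~100 pure standards. The HPLC was coupled to a quadrupole time-of-flight mass spectrometer operated in positive and negative ionization mode, with dead and dwell volumes of 40 μL and 900 μL. Each retention time was taken from a computationally picked adduct peak that was then manually inspected.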
row,SMILES,RP-LC retention time
1,CCn1c(SC)nnc1-c1nn(C)c2c1CN(C(=O)Cc1ccc(F)cc1)CC2,771 s
2,Cc1noc(-c2ccc(NC(=O)c3cn(C)nn3)cc2)n1,658 s
3,O=c1c2cc3c(cc2nc(SCc2nc(-c4ccc(Cl)cc4)no2)n1CC1CCCO1)OCO3 (stereo not drawn),1230 s
4,CC(=O)Nc1ccc(C(=O)Nc2ccccc2N)cc1,629 s
5,CC(C)Oc1ccc(CN2CC(c3nc(-c4ccsc4)nn3C)C2)cc1,696 s
6,O=C(NC1CCCN(c2cc(-c3ccc(Cl)cc3)[nH]n2)C1)c1ccc2[nH]ccc2c1 (stereo not drawn),825 s
7,CC(C)NC(=O)c1ccc(OCC2CCCN(C(=O)c3cccc(Cl)c3)C2)cc1 (stereo not drawn),899 s
8,COC(=O)c1cccc(C(=O)Nc2ccc(F)cc2Cl)n1,993 s
9,COc1ccccc1-c1noc(CCc2nnc3ccc(N4CCN(Cc5ccccc5)CC4)nn23)n1,616 s
10,Cc1noc2ncn(CC(=O)NCc3ccc(F)cc3)c(=O)c12,724 s
11,CC(C)Oc1ccc(CNC(=O)c2nnc(-c3ccc(S(=O)(=O)N4CCCC4)cc3)o2)cc1,1000 s
12,COc1ccc(C)cc1S(=O)(=O)N1CCN(Cc2ccc3c(c2)OCO3)CC1,609 s
13,COc1cc(NC(=O)COc2cc(C)nc(N3CCN(c4ccccc4)CC3)n2)cc(OC)c1,821 s
14,CC(=O)N1CCN(CCOc2ccc(C3CCN(C4=Nn5c(nnc5C(F)(F)F)CC4)CC3)cc2)CC1,686 s
15,Cn1c(=O)c(N2CCC(C(=O)NCCc3ccco3)CC2)nc2ccccc21,794 s
16,Cn1c(N2CCCC(C(=O)NCc3ccccc3)C2)cc(=O)n(C)c1=O (stereo not drawn),662 s
17,COc1ccc(Nc2c(-c3ccc(OC)c(OC)c3)nc3cnccn23)cc1OC,672 s
18,CCC(=O)NC1CCc2cccc(OC)c2C1 (stereo not drawn),821 s
19,COC(=O)C(NC(=O)Nc1cccn2c(C)nnc12)c1ccccc1 (stereo not drawn),678 s
20,Cc1ccc(CNC(=O)Cn2cccc2-c2nc(-c3ccccc3)cs2)o1,1050 s
21,Cc1ccc2c(c1)N(Cc1ccccc1F)N=C(C(=O)N1CCCC1)S2(=O)=O,885 s
22,CN1C(=O)c2ccccc2C(C(=O)Nc2ccc(F)cc2F)C1c1cccs1 (stereo not drawn),884 s

row,SMILES,RP-LC retention time
1,CC(C)CCNC(=O)C1CCN(C(=O)c2cc(-c3ccncc3)n[nH]2)CC1,591 s
2,C[C@@H]1CC2C3CCC4=CC(=O)C=CC4(C)[C@@]3(F)[C@@H](O)CC2(C)[C@@]1(O)C(=O)CO (stereo partly drawn),737 s
3,Cc1ccc(Nc2nc(C)cc(N3CCN(C(=O)Nc4cccc(C(F)(F)F)c4)CC3)n2)cc1,806 s
4,CC(=O)N1CCN(S(=O)(=O)c2cccc(C(=O)NCc3cccnc3)c2)CC1,533 s
5,COc1cccc(C(=O)Nc2ccc3c(c2)Sc2ncccc2C(=O)N3C(C)C)c1OC,915 s
6,CCOC(=O)CNC(=O)N1CCCC1c1cccc(C)c1 (stereo not drawn),784 s
7,CO[C@H]1C(=O)N(C(C)C)[C@H]1C1CCN(C(=O)c2ccsc2)CC1,693 s
8,COc1cccc(OC)c1OCC(O)CN1CCN(c2cc(Cl)ccc2C)CC1 (stereo not drawn),615 s
9,CC(C)c1nc2c(NC(=O)c3ccsc3)cccn2n1,866 s
10,COc1ccc(-c2nc3cnccn3c2Nc2ccc(C(=O)NCCN(C)C)cc2)cc1OC,576 s
11,O=C(Nc1cccc(Cl)c1)N1CCc2nc(-c3ccc(Cl)cc3)ncc2C1,1150 s
12,CCc1ccc(-c2nc3sc(C(=O)NC)c(C)n3c2NCCOC)cc1,754 s
13,Cc1cc(C(=O)N2CCCCC2)c2c(=O)n(CC(=O)c3c(C)n(C)c4ccccc34)c(=O)n(C)c2n1,934 s
14,COc1ccc(-c2nc(N(C)Cc3ccco3)c3ccccc3n2)cc1,765 s
15,Cc1cc(C)n(-c2nc(C)c(C(=O)Nc3cccc(C(F)(F)F)c3)s2)n1,1260 s
16,COc1cc(NC(=O)NCC(c2cccnc2)c2cn(C)c3ccccc23)cc(OC)c1OC (stereo not drawn),661 s
17,C=CCN(CC=C)c1nc(-c2ccc([N+](=O)[O-])cc2)nc2ccccc12,1060 s
18,Cn1c(=O)n(Cc2ccccc2)c(=O)c2c1nc(N1CCNCC1)n2Cc1ccccc1,672 s
19,CN(C)c1ccc(C(CNC(=O)CN2C(=O)c3ccccc3C2=O)N2CCCC2)cc1 (stereo not drawn),559 s
20,O=C(NCc1c(-c2ccc(Cl)cc2)nc2n1CCS2)c1ccco1,668 s
21,CC(=O)c1cccc(NC(=O)CN2C(=O)NC3(CCC(C)CC3)C2=O)c1 (stereo not drawn),746 s
22,Cc1sc(C)c(S(=O)(=O)NCc2ccc(F)cc2)c1-c1cc(C(F)(F)F)on1,1160 s

row,SMILES,RP-LC retention time
1,COc1ccc(N2CC(c3nc(-c4ccc(Cl)cc4)no3)CC2=O)cc1OC (stereo not drawn),947 s
2,COc1ccc(NC(=O)N(Cc2nnc3n2CCCCC3)c2ccc(OC)cc2)cc1,631 s
3,O=C(Nc1cccc(Cl)c1)c1cnn2c1CCCC2,814 s
4,CC1(C(=O)NCc2ccc(F)cc2)Cn2cnc(C(=O)NC3CC3)c2C(=O)N1C1CC1 (stereo not drawn),670 s
5,CCN1C(=O)Cc2ccccc2C1C(=O)N(C)Cc1ccco1 (stereo not drawn),732 s
6,COc1cc(NC(=O)Cn2c(C)cc(-c3nnc(C4CC4)o3)c2C)cc(OC)c1,829 s
7,Cc1cc2nc(C)c(=O)n(CCC(=O)NCCc3c[nH]c4ccc(Cl)cc34)c2cc1C,902 s
8,COc1nn(C)cc1C(=O)Nc1nnc(-c2cc(C)oc2C)o1,666 s
9,CC(C)Cn1cc(CCNC(=O)c2cccc(C(F)(F)F)c2)c2cccnc21,940 s
10,Cc1ccc(-n2ncc3c(=O)n(Cc4nc(-c5ccc(Br)cc5)no4)cnc32)cc1,1200 s
11,CCCN(CCC)C(=O)C1CCN(S(=O)(=O)c2ccc3c(c2)CCCC(=O)N3)CC1,694 s
12,CN1C(=O)COc2ccc(-c3csc(NC(=O)CCC4CCCCC4)n3)cc21,1140 s
13,Cc1ccc(-c2noc(-c3cc(N4CCN(C)CC4)nc4ccccc34)n2)cc1,835 s
14,COc1ccc(CSc2ncnc3nc[nH]c23)cc1,654 s
15,N#CCCSc1ccccc1NC(=O)c1ccc(S(=O)(=O)N2CCCCCC2)cc1,946 s
16,Cc1cc(=O)n(CC(=O)Nc2ccccc2C)c(N2CCCC2)n1,620 s
17,O=C(CCc1nc(-c2ccc(N3CCCCCC3)cc2)no1)N1CCCC1,1080 s
18,O=C(Cn1nc2c(cc1=O)CCCC2)N[C@@H](Cc1ccccc1)C(=O)O,682 s
19,COc1ccc(NC(=O)Cn2c(=O)c3cc(-c4cccs4)nn3c3ncccc32)cc1,810 s
20,Cc1ccc(Nc2nc(C)cc(N3CCN(S(=O)(=O)c4ccc(C(F)(F)F)cc4)CC3)n2)cc1,851 s
21,Cc1cc(C)cc(NC(=O)N2CCCC(Cn3cnc4cccnc43)C2)c1 (stereo not drawn),680 s
22,CCOC(=O)c1cc(S(=O)(=O)N(C)CC(=O)N2CCN(c3ccccn3)CC2)cn1C,614 s

row,SMILES,RP-LC retention time
1,CCN(CC)C(=O)c1cc2c(s1)N(CC1CC1)CCCC2,1180 s
2,COc1ccc(CCN2CC(=O)N(c3cccc(C)c3)[C@@H]3CS(=O)(=O)C[C@@H]32)cc1,830 s
3,CCn1cccc(-c2nnc(SCC(=O)NCc3ccco3)n2C)c1=O,576 s
4,COc1cc(CN(C(=O)c2ccc(OC(C)C)cc2)C2CCS(=O)(=O)C2)cc(OC)c1OC (stereo not drawn),868 s
5,Cc1ccc(CC(=O)NCc2c(C)noc2C)cc1,742 s
6,COC(=O)CC1=CC(SCC(=O)N2CCC(C)CC2)=Nc2ccccc2N1,1000 s
7,COc1ccc(-n2ccn3cc(-c4cccc(Cl)c4)nc3c2=O)cc1,873 s
8,CCN(CC)c1ccc(NC(=O)Cn2cc3c(n2)CCCCC3)c(C)c1,674 s
9,Cc1nc(-c2cn(C)c3ncccc23)sc1C(=O)Nc1cc(F)cc(F)c1,1050 s
10,CCC(C)NC(=O)c1cn(C)nc1S(=O)(=O)N1CCN(c2cc(Cl)ccc2C)CC1 (stereo not drawn),1150 s
11,COC(=O)c1cccc(C(=O)Nc2ccc(Cl)cc2F)n1,996 s
12,Cc1ccc(C)c(N2CCN(C(=O)C3CCCN(c4ncnc5c4nc4n5CCCCC4)C3)CC2)c1 (stereo not drawn),1050 s
13,O=c1n(CC2CC2)nc2n1CCN(Cc1ccncc1)C2,511 s
14,COc1ccccc1-c1noc(Cn2c(=O)n(-c3ccccc3C)c(=O)c3sccc32)n1,910 s
15,O=C(CN1CCN(Cc2cccc(Cl)c2)C1=O)NCc1ccncc1,599 s
16,Cc1ccc(C(=O)N2CCc3cc(CNC(=O)c4ccnn4C)ccc32)cc1,821 s
17,CCCCN(C)S(=O)(=O)c1cc(-c2nc(C)cs2)n(CC(=O)N2CCCCC2)c1,1080 s
18,NC(=O)c1cc(-c2ccccc2)nc2ccccc12,743 s
19,O=C(Nc1nc2c(s1)CN(Cc1ccccc1)CC2)C1CCCN1S(=O)(=O)c1cccs1 (stereo not drawn),654 s
20,COc1cc(NC(=O)NC2COc3ccccc3C2)cc(OC)c1OC (stereo not drawn),773 s
21,CC(C)CCNC(=O)NCCC1CCN(S(=O)(=O)c2ccc(F)cc2)CC1,880 s
22,Cc1nc(N)sc1-c1ccnc(Nc2ccc(N3CCOCC3)cc2)n1,624 s
